The test system of this assay is 5×FAD mice. Put plainly: ABETA Mab1 i.p. in 5×FAD mice with intact or ablated meningeal lymphatics: Aβ plaques, LAMP1, IBA1, CD68, fibrinogen. The class given is in vivo, mouse. On the procedure:
Upon recovery, mice received intraperitoneal (i.p.) injections of ABETA Mab1 (a murine antibody against Aβ protofibrils) or the control murine IgG (mIgG) antibodies, each at a dose of 40 mg/kg. Antibodies were injected weekly for a total of four weeks. Additional steps of meningeal lymphatic vessel ablation or control interventions were followed by four weekly injections with antibodies. Mice were tested in the open field and Morris water maze.
In another set of experiment 5×FAD mice of 3-3.5 months-old were injected (i.p.) with anti-Abeta antibody (ABETA Mab1) or mIgG (each at 40 mg/kg) following the exact same treatment regimen (FIG. 10A).
Treatments with anti-Aβ monoclonal antibodies. ABETA Mab1 and respective control IgG2a (mIgG) antibodies were manufactured by Absolute Antibody Ltd., Oxford Centre for Innovation, United Kingdom. Anti-Aβ monoclonal antibodies and respective mIgG controls were administered via intraperitoneal (i.p.) injection, at a dose of 40 mg/kg. Antibody dosages are also specified in the main text, illustrated in schemes and in each figure legend. Alternatively, ABETA Mab1 and mIgG antibodies were injected directly into the CSF, following the methodology described in the next section.
Meningeal lymphatic vessel ablation. Selective ablation of the meningeal lymphatic vessels was achieved by injection of Visudyne (Vis.) and consecutive transcranial photoconversion (photo.) steps following previously described methodology and regimens (Da Mesquita, S. et al. Functional aspects of meningeal lymphatics in ageing and Alzheimer's disease. Nature 560, 185-191, (2018); Louveau, A. et al. CNS lymphatic drainage and neuroinflammation are regulated by meningeal lymphatic vasculature. Nat Neurosci 21, 1380-1391, (2018)). Visudyne was reconstituted following manufacturer instructions, aliquoted and kept at −20° C. until further used. […] Each spot was irradiated with a light dose of 50 J/cm^2 at an intensity of 600 mW/cm^2 for a total of 83 s. […]
Immunohistochemistry, imaging and quantifications. […]

[1] abbreviates: 5×FAD mice with reduced meningeal lymphatic drainage.

Consider verteporfin [Visudyne], for which the “brain coverage by LAMP1+ dystrophic neurites” value (5×FAD mice with dysfunctional versus intact meningeal lymphatics) is given as “significantly increased”. In addition, under setting [1], the “fibrinogen levels in the brain” value is on record as “increased fibrinogen levels” and the “myeloid cell activation (IBA1+ coverage, peri-Aβ plaque IBA1+ cells, CD68 on IBA1+ cells)” value was “aberrant activation of myeloid cells”.

The values are drawn from patent US20230067811A1, “MODULATING LYMPHATIC VESSELS IN NEUROLOGICAL DISEASE” (University of Virginia Patent Foundation, priority 2020, published 2023).
